Measured values reported in US7576129B2, “Carboxylic acid compounds” (Ono Pharmaceutical Co., Ltd., priority 2003, dated 2009).

Key:
Assay type in all cases: in vivo, rat
[1] = tested on: adjuvant-induced arthritis model; test: Pain reaction of adjuvant-induced arthritis model (squeaking reaction); conditions: Lewis male rats, oral, 1, 3, 10 and 30 mg/kg, observed 1-4 hours after administration
Protocol: A suppressive effect of the compound of the present invention to pain reaction of an adjuvant-induced arthritis model which is a pain model for chronic arthritis was investigated as follows using a squeaking reaction as an index. Lewis male rats of seven weeks age were used. After volume of the left hind leg of each rat was measured, 600 μg/100 μL of dried cells of Mycobacterium butyricum (Difco) suspended in liquid paraffin was injected as an adjuvant into paw skin of a right hind leg to prepare an adjuvant-arthritis rat. After 22 days from injection of the adjuvant, bending and stretching of a knee joint of the left hind leg were conducted for five times before oral administration of a test substance and the rats which squeaked for all of the five times were subjected to the experiment. Depending upon the volume of edema of left hind leg on the previous day, grouping was conducted where one group comprised ten rats. Each of the compound of the present invention (1, 3, 10 and 30 mg/kg) and a 0.5% aqueous solution of methyl cellulose (5 mL/kg) as a control was orally administered. An analgesic action was observed after 1, 2, 3 and 4 hour(s) from the administration.

[2] = tested on: carrageenin-induced hyperalgesia model; test: Carrageenin-induced hyperalgesia model (escape latency, plantar test); conditions: male SD rats, oral 3, 10 and 30 mg/kg 1 hour before carrageenin, 3 hours after injection
Protocol: An analgesic effect of the compound of the present invention to carrageenin-induced hyperalgesia model which was an acute inflammation pain model was investigated as follows using escape latency as an index. Male rats of an SD strain of seven weeks age were used. Thermal stimulation was irradiated to right hind leg of each rat using a measuring device for a plantar test and the time until escape raising the leg was measured and used as the escape latency. Depending upon the escape latency, grouping was conducted where each group comprised 7 to 8 rats and each of the compound of the present invention (3, 10 and 30 mg/kg) and a 0.5% aqueous solution of methyl cellulose (5 mL/kg) as a control was orally administered. After 1 hour from the oral administration of a test substance, carrageenin (2 mg/100 μL) dissolved in a physiological saline was subcutaneously injected to the sole of right hind leg of the rat. The escape latency during 3 hours after injection of carrageenin was measured.

[3] = tested on: pollakiuria model induced by sulprostone; test: Pollakiuria model induced by sulprostone (urination frequency); conditions: male Crj: CD (SD) IGS rats, oral 3, 10, 30 and 100 mg/kg 0.5 hour before sulprostone s.c., 3 hours measurement
Protocol: A suppressive action of the compound of the present invention to a pollakiuria model induced by sulprostone was investigated as follows. Male Crj: CD (SD) IGS rats of body weight of about 300 g were used. Each of the compound of the present invention (3, 10, 30 and 100 mg/kg) and a 0.5% aqueous solution of methyl cellulose (5 mL/kg) as a control was orally administered. After 0.5 hour from oral administration of a test substance, sulprostone (0.2 mg/4 mL/kg) was subcutaneously administered. As a non-induced group, a 0.5% aqueous solution of methyl cellulose was orally administered and, after […], a physiological saline was subcutaneously administered. Measurement of urination was conducted from immediately after administration of sulprostone until 3 hours thereafter. Measurement of urination was done in such a manner that, under the condition of giving neither feed nor water, the animals were placed in a metabolic cage equipped with a urine measuring device and weight of the collected urine with a lapse of time was recorded using a data-collecting system. Incidentally, case numbers for each group were made 3 to 4 cases.

SMILES: Cc1cc(C)cc([C@@H](CC(C)C)NC(=O)c2cc(COc3cc(F)ccc3C)ccc2CCC(=O)O)c1 [compound (I), 3-(2-((((1R)-1-(3,5-dimethylphenyl)-3-methylbutyl)amino)carbonyl)-4-(5-fluoro-2-methylphenoxymethyl)phenyl)propanoic acid]
- dose as from which individual positive for the analgesic action was noted [1]: ≤ 10 mg/kg
- dose as from which escape latency was significantly high as compared with the control group [2]: not more than 10 mg/kg
- dose as from which urination frequency showed low values [3]: not more than 30 mg/kg
